Assay results from PubChem BioAssay (NCI).
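48-hour exposure; five concentrations; linearly interpolated endpoints. TGI: total growth inhibition.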

What was measured:
Experiment in all cases: NCI-60 cell line screen, 48 h
SK-MEL-28 melanoma = test system: SK-MEL-28 melanoma
UACC-257 melanoma = test system: UACC-257 melanoma
SF-268 CNS = test system: SF-268 CNS
SK-OV-3 ovarian = test system: SK-OV-3 ovarian
SF-295 CNS = test system: SF-295 CNS
T-47D breast = test system: T-47D breast
MDA-MB-435 = test system: MDA-MB-435
COLO 205 colon = test system: COLO 205 colon
M14 melanoma = test system: M14 melanoma
HOP-62 NSCLC = test system: HOP-62 NSCLC
SR leukemia = test system: SR leukemia
SNB-19 CNS = test system: SNB-19 CNS
SK-MEL-2 melanoma = test system: SK-MEL-2 melanoma
NCI-H226 lung = test system: NCI-H226 lung
NCI-H522 lung = test system: NCI-H522 lung
LOX IMVI melanoma = test system: LOX IMVI melanoma
MDA-N = test system: MDA-N
A549 NSCLC = test system: A549 NSCLC
HS 578T breast = test system: HS 578T breast
A498 renal = test system: A498 renal
OVCAR-5 ovarian = test system: OVCAR-5 ovarian
MOLT-4 leukemia = test system: MOLT-4 leukemia
MCF7 breast = test system: MCF7 breast
SN12C renal = test system: SN12C renal
OVCAR-8 ovarian = test system: OVCAR-8 ovarian
OVCAR-3 ovarian = test system: OVCAR-3 ovarian
DU-145 prostate = test system: DU-145 prostate
SW-620 colon = test system: SW-620 colon
HT29 colon = test system: HT29 colon
OVCAR-4 ovarian = test system: OVCAR-4 ovarian
HCT-15 colon = test system: HCT-15 colon
K-562 leukemia = test system: K-562 leukemia
KM12 colon = test system: KM12 colon
HCT-116 colon = test system: HCT-116 colon
UACC-62 melanoma = test system: UACC-62 melanoma
BT-549 breast = test system: BT-549 breast
EKVX NSCLC = test system: EKVX NSCLC
SF-539 CNS = test system: SF-539 CNS
NCI-H460 lung = test system: NCI-H460 lung
SK-MEL-5 melanoma = test system: SK-MEL-5 melanoma
MDA-MB-231 breast = test system: MDA-MB-231 breast
CAKI-1 renal = test system: CAKI-1 renal
IGROV1 ovarian = test system: IGROV1 ovarian
786-0 renal = test system: 786-0 renal
RXF 393 renal = test system: RXF 393 renal
NCI/ADR-RES ovarian = test system: NCI/ADR-RES ovarian
U251 CNS = test system: U251 CNS
HOP-92 NSCLC = test system: HOP-92 NSCLC
NCI-H23 lung = test system: NCI-H23 lung
CCRF-CEM leukemia = test system: CCRF-CEM leukemia
PC-3 prostate = test system: PC-3 prostate
ACHN renal = test system: ACHN renal
HL-60(TB) leukemia = test system: HL-60(TB) leukemia
TK-10 renal = test system: TK-10 renal
HCC-2998 colon = test system: HCC-2998 colon
UO-31 renal = test system: UO-31 renal
SNB-75 CNS = test system: SNB-75 CNS
RPMI-8226 leukemia = test system: RPMI-8226 leukemia

Nc1ccc2c(c1)S(=O)(=O)c1cc(O)ccc1O2
TGI (SK-MEL-28 melanoma): > 100 µM | TGI (UACC-257 melanoma): > 100 µM | TGI (SF-268 CNS): > 100 µM | TGI (SK-OV-3 ovarian): > 100 µM | TGI (SF-295 CNS): > 100 µM | TGI (T-47D breast): > 100 µM | TGI (MDA-MB-435): > 100 µM | TGI (COLO 205 colon): > 100 µM | TGI (M14 melanoma): > 100 µM | TGI (HOP-62 NSCLC): > 100 µM | TGI (SR leukemia): > 100 µM | TGI (SNB-19 CNS): > 100 µM | TGI (SK-MEL-2 melanoma): > 100 µM | TGI (NCI-H226 lung): > 100 µM | TGI (NCI-H522 lung): > 100 µM | TGI (LOX IMVI melanoma): > 100 µM | TGI (MDA-N): > 100 µM | TGI (A549 NSCLC): > 100 µM | TGI (HS 578T breast): > 100 µM | TGI (A498 renal): > 100 µM | TGI (OVCAR-5 ovarian): > 100 µM | TGI (MOLT-4 leukemia): > 100 µM | TGI (MCF7 breast): > 100 µM | TGI (SN12C renal): > 100 µM | TGI (OVCAR-8 ovarian): > 100 µM | TGI (OVCAR-3 ovarian): > 100 µM | TGI (DU-145 prostate): > 100 µM | TGI (SW-620 colon): > 100 µM | TGI (HT29 colon): > 100 µM | TGI (OVCAR-4 ovarian): > 100 µM | TGI (HCT-15 colon): > 100 µM | TGI (K-562 leukemia): > 100 µM | TGI (KM12 colon): > 100 µM | TGI (HCT-116 colon): > 100 µM | TGI (UACC-62 melanoma): > 100 µM | TGI (BT-549 breast): > 100 µM | TGI (EKVX NSCLC): > 100 µM | TGI (SF-539 CNS): > 100 µM | TGI (NCI-H460 lung): > 100 µM | TGI (SK-MEL-5 melanoma): > 100 µM | TGI (MDA-MB-231 breast): > 100 µM | TGI (CAKI-1 renal): > 100 µM | TGI (IGROV1 ovarian): > 100 µM | TGI (786-0 renal): > 100 µM | TGI (RXF 393 renal): > 100 µM | TGI (NCI/ADR-RES ovarian): > 100 µM | TGI (U251 CNS): > 100 µM | TGI (HOP-92 NSCLC): > 100 µM | TGI (NCI-H23 lung): > 100 µM | TGI (CCRF-CEM leukemia): > 100 µM | TGI (PC-3 prostate): > 100 µM | TGI (ACHN renal): > 100 µM | TGI (HL-60(TB) leukemia): > 100 µM | TGI (TK-10 renal): > 100 µM | TGI (HCC-2998 colon): > 100 µM | TGI (UO-31 renal): > 100 µM

COC(=O)C(CCC1C=CN(S(=O)(=O)c2ccc(C)cc2)C1)N=Cc1ccccc1 (centres undefined)
TGI (SK-MEL-28 melanoma): > 100 µM | TGI (UACC-257 melanoma): > 100 µM | TGI (SF-268 CNS): > 100 µM | TGI (SK-OV-3 ovarian): > 100 µM | TGI (SF-295 CNS): > 100 µM | TGI (T-47D breast): > 100 µM | TGI (MDA-MB-435): > 100 µM | TGI (COLO 205 colon): 41.1 µM | TGI (M14 melanoma): > 100 µM | TGI (HOP-62 NSCLC): > 100 µM | TGI (SR leukemia): 61.1 µM | TGI (SNB-19 CNS): > 100 µM | TGI (SK-MEL-2 melanoma): 49.6 µM | TGI (NCI-H226 lung): > 100 µM | TGI (NCI-H522 lung): > 100 µM | TGI (LOX IMVI melanoma): > 100 µM | TGI (SNB-75 CNS): > 100 µM | TGI (MDA-N): > 100 µM | TGI (A549 NSCLC): > 100 µM | TGI (HS 578T breast): > 100 µM | TGI (A498 renal): > 100 µM | TGI (OVCAR-5 ovarian): > 100 µM | TGI (MOLT-4 leukemia): > 100 µM | TGI (MCF7 breast): > 100 µM | TGI (SN12C renal): > 100 µM | TGI (OVCAR-8 ovarian): > 100 µM | TGI (OVCAR-3 ovarian): > 100 µM | TGI (DU-145 prostate): > 100 µM | TGI (SW-620 colon): > 100 µM | TGI (HT29 colon): > 100 µM | TGI (OVCAR-4 ovarian): > 100 µM | TGI (HCT-15 colon): > 100 µM | TGI (K-562 leukemia): > 100 µM | TGI (KM12 colon): > 100 µM | TGI (HCT-116 colon): > 100 µM | TGI (UACC-62 melanoma): > 100 µM | TGI (BT-549 breast): > 100 µM | TGI (EKVX NSCLC): > 100 µM | TGI (SF-539 CNS): > 100 µM | TGI (NCI-H460 lung): > 100 µM | TGI (SK-MEL-5 melanoma): 53.9 µM | TGI (MDA-MB-231 breast): > 100 µM | TGI (CAKI-1 renal): > 100 µM | TGI (IGROV1 ovarian): > 100 µM | TGI (786-0 renal): > 100 µM | TGI (RXF 393 renal): > 100 µM | TGI (NCI/ADR-RES ovarian): > 100 µM | TGI (U251 CNS): > 100 µM | TGI (HOP-92 NSCLC): > 100 µM | TGI (NCI-H23 lung): 63 µM | TGI (CCRF-CEM leukemia): > 100 µM | TGI (PC-3 prostate): > 100 µM | TGI (ACHN renal): > 100 µM | TGI (HL-60(TB) leukemia): 22.1 µM | TGI (TK-10 renal): > 100 µM | TGI (HCC-2998 colon): > 100 µM | TGI (UO-31 renal): > 100 µM | TGI (RPMI-8226 leukemia): 82 µM
